Test system: 519858-162-T-J1-PDC complex spheroid viability
Test: Anticancer human tumor 519858-162-T-J1-PDC patient-derived colon adenocarcinoma cell line growth inhibition [GQUAD]
Details: for IC50: curve of first compound; for viability, T/C: stronger effect = lower value
From the text: DNA G-quadruplex Stabilizer Agents in Combinations in Complex Spheroids
A high-throughput screen of multi-cell type tumor spheroids was designed to identify active combinations of DNA G-quadruplex stabilizer agents and targeted small molecules. Complex spheroids include a stromal component modeled by human endothelial cells (HUVEC) and fibroblasts modeled by human mesenchymal stem cells (MSCs). The concentration ranges selected for each drug and investigational agent were based upon clinically achievable concentrations if the clinical Cmax of the agent was known.
Compounds. The drugs and investigational agents: pidnarulex (CX-5461; NSC782164), APTO-253 (NSC789042), BRACO-19 (NSC847499), peposertib (NSC802822), ceralasertib (NSC780249), elimusertib (NSC800525), camonsertib (NSC841442), AZD-1390 (NSC803789), olaparib (NSC753686), talazoparib (NSC767125), ART-558 (NSC835418), sotorasib (NSC818433), MRTX-1133 (NSC836407), SN-38 (NSC673596), topotecan (NSC609699), etoposide (NSC141540), doxorubicin (NSC123127), gemcitabine (NSC613327), 5-fluorouracil (NSC19893), paclitaxel (NSC125973), vemurafenib (NSC761431), panobinostat (NSC761190), R-306465 (JNJ-16241199; NSC773264), adavosertib (NSC754352), TP-3654 (NSC805149), carboplatin (NSC241240), KSQ-4279 (NSC840948), and staurosporine (NSC755774) were obtained from the National Cancer Institute (NCI) Developmental Therapeutics Program Chemical Repository (34). The FDA-approved anticancer drug set is available from the NCI Developmental Therapeutics Program. […] The stock solutions were prepared in dimethyl sulfoxide (DMSO, Sigma-Aldrich, St. Louis, MO, cat. D2650) at 800-fold the tested concentration and stored at -70 degrees C prior to their use. All drugs and investigational agents were tested over a range starting from a high concentration at or near the clinical Cmax and decreasing in half-log increments. If the clinical Cmax for an agent had not been determined, the highest concentration tested was 10 microM.
2.3 Cell Culture. All cells were maintained in an incubator at 37 degrees C and 5% CO2 with 95% humidity. The PDC lines were cultured according to standard operating procedures established by the NCI PDMR. All PDCs were thawed and cultured in Matrigel-coated flasks prepared with a working solution of 1X Ham's F-12 nutrient mix, without supplementation (Invitrogen, cat. 11765054), 100 U/mL penicillin-streptomycin (Invitrogen, cat. 15140122), and 2.5% Matrigel (Corning Inc., cat. 354248) for the first three passages. The 857933-349-R-J2-PDC line was cultured in 6C/Colon 1B media, which includes advanced DMEM/F-12 (Thermo Fisher Scientific, cat. 12634028), 10 mM HEPES (Thermo Fisher Scientific, cat. 15630080), 1X GlutaMAX supplement (Thermo Fisher Scientific, cat. 35050061), 0.1 mg/mL primocin (InvivoGen, cat. ant-pm-2), 10% defined fetal bovine serum, heat inactivated (HyClone Laboratories Inc., cat. SH30070.03HI), 50% L-WRN conditioned media (ATCC, cat. CRL-3276), 1.25 mM N-Acetyl-L-cysteine (Sigma-Aldrich, cat. A9165), 10 mM nicotinamide (Sigma-Aldrich, cat. N0636), 1X B-27 supplement (Thermo Fisher Scientific, cat. 17504044), 1X N-2 supplement (Thermo Fisher Scientific, cat. 17502048), 10 microM Y-27632 dihydrochloride (Tocris Bioscience, cat. 1254), and 50 ng/mL human EGF recombinant protein (Thermo Fisher Scientific, cat. PHG0311). The 485176-168-R4-J1-PDC line was cultured in Panc media, which includes all 6C/Colon 1B media components plus 100 ng/mL human FGF-10 (Thermo Fisher Scientific, cat. 100-26), 500 nM SB-431542 (Selleckchem, cat. S1067), and gastrin (Tocris, cat. 3006).
[…]

[1] = second compound 0.0316 µM, first compound 0.000999 µM
[2] = second compound 0.0316 µM, first compound 0.00316 µM
[3] = second compound 0.0316 µM, first compound 0.00999 µM
[4] = second compound 0.0316 µM, first compound 0.0316 µM
[5] = second compound 0.0316 µM, first compound 0.0999 µM
[6] = second compound 0.0316 µM, first compound 0.316 µM
[7] = second compound 0.1 µM, first compound 0.000999 µM
[8] = second compound 0.1 µM, first compound 0.00316 µM
[9] = second compound 0.1 µM, first compound 0.00999 µM
[10] = second compound 0.1 µM, first compound 0.0316 µM
[11] = second compound 0.1 µM, first compound 0.0999 µM
[12] = second compound 0.1 µM, first compound 0.316 µM
[13] = second compound 0.316 µM, first compound 0.000999 µM
[14] = second compound 0.316 µM, first compound 0.00316 µM
[15] = second compound 0.316 µM, first compound 0.00999 µM
[16] = second compound 0.316 µM, first compound 0.0316 µM
[17] = second compound 0.316 µM, first compound 0.0999 µM
[18] = second compound 0.316 µM, first compound 0.316 µM
[19] = second compound 1 µM, first compound 0.000999 µM
[20] = second compound 1 µM, first compound 0.00316 µM
[21] = second compound 1 µM, first compound 0.00999 µM
[22] = second compound 1 µM, first compound 0.0316 µM
[23] = second compound 1 µM, first compound 0.0999 µM
[24] = second compound 1 µM, first compound 0.316 µM
[25] = second compound 3.16 µM, first compound 0.000999 µM
[26] = second compound 3.16 µM, first compound 0.00316 µM
[27] = second compound 3.16 µM, first compound 0.00999 µM
[28] = second compound 3.16 µM, first compound 0.0316 µM
[29] = second compound 3.16 µM, first compound 0.0999 µM
[30] = second compound 3.16 µM, first compound 0.316 µM
[31] = second compound 10 µM, first compound 0.000999 µM
[32] = second compound 10 µM, first compound 0.00316 µM
[33] = second compound 10 µM, first compound 0.00999 µM
[34] = second compound 10 µM, first compound 0.0316 µM
[35] = second compound 10 µM, first compound 0.0999 µM
[36] = second compound 10 µM, first compound 0.316 µM
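Note: spheroids exposed to compounds for 7 days.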
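Throughout, for viability, T/C: 100% = DMSO vehicle control viability.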

CC[C@@]1(O)C(=O)OCc2c1cc1n(c2=O)Cc2cc3c(CN(C)C)c(O)ccc3nc2-1 + Cc1cnc(CNC(=O)c2c(=O)c3ccc(N4CCCN(C)CC4)nc3n3c2sc2ccccc23)cn1
IC50 (second compound 0.0316 µM): > 316 nM
IC50 (second compound 0.1 µM): > 316 nM
IC50 (second compound 0.316 µM): > 316 nM
IC50 (second compound 1 µM): > 316 nM
IC50 (second compound 3.16 µM): > 316 nM
IC50 (second compound 10 µM): < 0.999 nM
viability, T/C [1]: 88%
viability, T/C [2]: 91%
viability, T/C [3]: 89.7%
viability, T/C [4]: 67.7%
viability, T/C [5]: 78%
viability, T/C [6]: 83.7%
viability, T/C [7]: 93.8%
viability, T/C [8]: 89.3%
viability, T/C [9]: 84.5%
viability, T/C [10]: 79.5%
viability, T/C [11]: 70.9%
viability, T/C [12]: 59.4%
viability, T/C [13]: 90.1%
viability, T/C [14]: 86.8%
viability, T/C [15]: 96.5%
viability, T/C [16]: 78.8%
viability, T/C [17]: 80.7%
viability, T/C [18]: 74.6%
viability, T/C [19]: 66.1%
viability, T/C [20]: 58.9%
viability, T/C [21]: 72.8%
viability, T/C [22]: 49.7%
viability, T/C [23]: 59%
viability, T/C [24]: 62.9%
viability, T/C [25]: 67.2%
viability, T/C [26]: 43.9%
viability, T/C [27]: 75.9%
viability, T/C [28]: 43%
viability, T/C [29]: 38.2%
viability, T/C [30]: 64.4%
viability, T/C [31]: 58.5%
viability, T/C [32]: 34.9%
viability, T/C [33]: 40%
viability, T/C [34]: 41.2%
viability, T/C [35]: 37.8%
viability, T/C [36]: 37.6%

Cn1ncnc1[C@H]1c2n[nH]c(=O)c3cc(F)cc(c23)N[C@@H]1c1ccc(F)cc1 + Cc1cnc(CNC(=O)c2c(=O)c3ccc(N4CCCN(C)CC4)nc3n3c2sc2ccccc23)cn1
IC50 (second compound 0.0316 µM): > 316 nM
IC50 (second compound 0.1 µM): > 316 nM
IC50 (second compound 0.316 µM): > 316 nM
IC50 (second compound 1 µM): > 316 nM
IC50 (second compound 3.16 µM): < 0.999 nM
IC50 (second compound 10 µM): < 0.999 nM
viability, T/C [1]: 96.5%
viability, T/C [2]: 116%
viability, T/C [3]: 101%
viability, T/C [4]: 72.1%
viability, T/C [5]: 70.2%
viability, T/C [6]: 57.8%
viability, T/C [7]: 60.1%
viability, T/C [8]: 92.9%
viability, T/C [9]: 79.5%
viability, T/C [10]: 79.5%
viability, T/C [11]: 56.8%
viability, T/C [12]: 65.2%
viability, T/C [13]: 85.3%
viability, T/C [14]: 81.8%
viability, T/C [15]: 65.9%
viability, T/C [16]: 72%
viability, T/C [17]: 61.5%
viability, T/C [18]: 58.9%
viability, T/C [19]: 85.2%
viability, T/C [20]: 72.3%
viability, T/C [21]: 60.9%
viability, T/C [22]: 73.3%
viability, T/C [23]: 69.9%
viability, T/C [24]: 72.7%
viability, T/C [25]: 47.3%
viability, T/C [26]: 48.7%
viability, T/C [27]: 50.3%
viability, T/C [28]: 38.7%
viability, T/C [29]: 43.1%
viability, T/C [30]: 52.3%
viability, T/C [31]: 26.9%
viability, T/C [32]: 54%
viability, T/C [33]: 44.4%
viability, T/C [34]: 50.4%
viability, T/C [35]: 49.1%
viability, T/C [36]: 72%

Source: PubChem BioAssay AID2060507 (Molecular Pharmacology Branch, DTP, NCI, 2025)
